Reference: ChEMBL document CHEMBL4483862, “Open-source discovery of chemical leads for next-generation chemoprotective antimalarials” (2018)

System: Plasmodium berghei
Assay: Luciferase/luciferin-expressing antifolate-resistant parasites were used to infect a culture of HepG2 cells that were pre-incubated with compounds. Infected hepatocytes emit light due to the luciferase reaction. Assay results are presented as the percent inhibition of light emission compared to control. […]
Assay type: functional
Conditions: sporozoite; for IC90: read-out: LUCIFERASE INFECTION ASSAY - IC90
[1] = read-out: LUCIFERASE INFECTION ASSAY - IC50

| SMILES | IC90 [µM] | IC50 [1] [µM] | also measured |
| --- | --- | --- | --- |
| COc1ccc(C2(c3ccc(OC)cc3)NC(=O)N(CC(=O)c3cc(C)n(C4CC4)c3C)C2=O)cc1 | > 10 | – | IC50 (PBLUC_HILL_SLOPE 10.1, PBLUC_R_SQUARED 0.388, read-out: LUCIFERASE INFECTION ASSAY - IC50): 8.48 µM |
| CC(=O)Nc1ccc(S(=O)(=O)NCCC(=O)OCc2ccccc2F)cc1 | > 10 | > 10 | – |
| O=C(NNC(=O)c1sc(-c2ccco2)nc1-c1ccccc1)c1ccccn1 | 3.33 | – | IC50 (HEPG2TOX_HILL_SLOPE 1.58, HEPG2TOX_R_SQUARED 0.893, PBLUC_HILL_SLOPE 37.6, PBLUC_R_SQUARED 0.722, read-out: LUCIFERASE INFECTION ASSAY - IC50): 3.14 µM |
| CC(C)Oc1cccc(Nc2nccc3[nH]c(-c4cccc(F)c4)cc23)c1 | > 10 | 1.49 | – |
| N#Cc1ccc(C(=O)C(C#N)c2nc(-c3ccc(F)cc3)cs2)cc1 (stereo not drawn) | 3.83 | – | IC50 (PBLUC_HILL_SLOPE 17.7, PBLUC_R_SQUARED 0.0264, read-out: LUCIFERASE INFECTION ASSAY - IC50): 3.38 µM |
| Cc1ccc(C(C)C)c(OCc2ccc(-c3nnco3)cc2)c1 | > 10 | > 10 | – |
| Cc1ccc(C)c(CN2CCC3(CC2)C(=O)N(CCCc2cccnc2)C(=O)N3Cc2ccccc2)c1 | 5.55 | 4.38 | – |
| NC(=O)c1cccc(-c2cn3c(-c4cccc(O)c4)cnc3cn2)c1 | > 9.99 | – | IC50 (PBLUC_HILL_SLOPE 9.23, PBLUC_R_SQUARED 0.539, read-out: LUCIFERASE INFECTION ASSAY - IC50): 8.89 µM |
| CC(C)Sc1nnc(CSc2nc3ccccc3s2)n1C | 3.94 | – | IC50 (PBLUC_HILL_SLOPE 13.4, PBLUC_R_SQUARED 0.563, read-out: LUCIFERASE INFECTION ASSAY - IC50): 3.35 µM |
| Cc1cc2oc(=O)cc(Cn3cnc([N+](=O)[O-])c3)c2cc1C | > 10 | – | IC50 (PBLUC_HILL_SLOPE 0.353, PBLUC_R_SQUARED 0.0201, read-out: LUCIFERASE INFECTION ASSAY - IC50): > 10 µM |
| Cc1c(C(=O)OCC(=O)c2cc(C)n(-c3cccc(F)c3)c2C)sc2nc3n(c(=O)c12)CCC3 | > 10 | > 10 | – |
| CN(C)C(=O)c1cccc(-c2cn3c(-c4ccc5c(ccn5C)c4)cnc3cn2)c1 | > 8.34 | – | IC50 (HEPG2TOX_HILL_SLOPE 2.46, HEPG2TOX_R_SQUARED 0.94, PBLUC_HILL_SLOPE 1.63, PBLUC_R_SQUARED 0.793, read-out: LUCIFERASE INFECTION ASSAY - IC50): 2.64 µM |
| CC(NC(=O)Nc1ccc(C#N)cc1)c1ccc2ccccc2c1 (stereo not drawn) | > 10 | – | IC50 (PBLUC_HILL_SLOPE 12.1, PBLUC_R_SQUARED 0.463, read-out: LUCIFERASE INFECTION ASSAY - IC50): 9.4 µM |
| S=C(NCC1CCCO1)c1c(-c2ccccc2)c2c3n(c(COc4ccccc4)nn13)CCCC2 (stereo not drawn) | 9.41 | – | IC50 (FFLUC_HILL_SLOPE 2.32, FFLUC_R_SQUARED 0.306, HEPG2TOX_HILL_SLOPE 7.94, HEPG2TOX_R_SQUARED 0.0665, PBLUC_HILL_SLOPE 11.7, PBLUC_R_SQUARED 0.258, read-out: LUCIFERASE INFECTION ASSAY - IC50): 7.8 µM |
| CCN1C(=O)N(CC(N)=O)C(=O)C12CCN(Cc1ccc(N(C)c3ccccc3)cc1)CC2 | > 7.34 | – | IC50 (HEPG2TOX_HILL_SLOPE 2.17, HEPG2TOX_R_SQUARED 0.96, PBLUC_HILL_SLOPE 2.1, PBLUC_R_SQUARED 0.458, read-out: LUCIFERASE INFECTION ASSAY - IC50): 3.27 µM |
| O=S(=O)(c1ccc2ccccc2c1)N1CCCC1c1ccncc1 (stereo not drawn) | > 10 | – | IC50 (HEPG2TOX_HILL_SLOPE 4.75, HEPG2TOX_R_SQUARED 0.828, PBLUC_HILL_SLOPE 11, PBLUC_R_SQUARED 0.196, read-out: LUCIFERASE INFECTION ASSAY - IC50): 9.32 µM |
| COc1ccccc1NC(=O)c1ccc(NC(=O)Cn2ncc(Cl)c(Cl)c2=O)cc1 | 4.54 | 3.41 | – |
| COc1cccc(Nc2nccc3[nH]c(-c4cc(OC)cc(OC)c4)cc23)c1 | 1.74 | – | IC50 (HEPG2TOX_HILL_SLOPE 0.988, HEPG2TOX_R_SQUARED 0.934, PBLUC_HILL_SLOPE 2.38, PBLUC_R_SQUARED 0.617, read-out: LUCIFERASE INFECTION ASSAY - IC50): 0.69 µM |
| S=c1sc(Nc2ccc(Oc3ccccc3)cc2)nn1CN1CCN(c2ncccn2)CC1 | > 10 | – | IC50 (PBLUC_HILL_SLOPE 0.972, PBLUC_R_SQUARED 0.697, read-out: LUCIFERASE INFECTION ASSAY - IC50): 3.61 µM |
| O=C(Cc1csc(-c2ccccn2)n1)Nc1sc2c(c1C(=O)NCc1ccccc1)CCCC2 | > 10 | > 10 | – |
| CCOC(=O)c1nn(CCc2ccccc2)c2c1CN(C(=O)c1cc(C)n[nH]1)CC2 | > 8.1 | – | IC50 (PBLUC_HILL_SLOPE 3.03, PBLUC_R_SQUARED 0.7, read-out: LUCIFERASE INFECTION ASSAY - IC50): 4.26 µM |
| COc1cc(OC)c2[nH]c(C(=O)NCCc3ccc(-c4csc(C)n4)s3)cc2c1 | > 10 | > 10 | – |

| SMILES | IC90 [µM] | IC50 [1] [µM] | also measured |
| --- | --- | --- | --- |
| C=CCn1c(SCC(=O)c2cc(C)n(-c3ccc(OC)cc3)c2C)nc2sc(-c3ccccc3)cc2c1=O | > 10 | > 10 | – |
| COc1ccc(C2=NN=C/C2=N\Nc2ccc(C(F)(F)F)cc2)cc1 | 7.39 | – | IC50 (HEPG2TOX_HILL_SLOPE 2.77, HEPG2TOX_R_SQUARED 0.967, PBLUC_HILL_SLOPE 4.55, PBLUC_R_SQUARED 0.276, read-out: LUCIFERASE INFECTION ASSAY - IC50): 4.56 µM |
| O=C(CSc1nn(Cc2ccccc2)/c(=N\Cc2ccccc2)s1)NC(=O)NC1CCCCC1 | > 10 | – | IC50 (FFLUC_HILL_SLOPE 7.96, FFLUC_R_SQUARED 0.22, read-out: LUCIFERASE INFECTION ASSAY - IC50): > 10 µM |
| CC(C)C(=O)N1CCN(c2nc(CSc3ccccc3)nc3sc4c(c23)CCCC4)CC1 | > 10 | – | IC50 (PBLUC_HILL_SLOPE 15.3, PBLUC_R_SQUARED 0.212, read-out: LUCIFERASE INFECTION ASSAY - IC50): 8.67 µM |
| CC(C)c1ccc(NC(=O)CSc2ncc3c(n2)CC(C)(C)CC3=O)cc1 | > 8.6 | > 8.6 | – |
| COc1ccc(CC(=O)NCc2ccccc2Cl)cc1 | > 11.4 | – | IC50 (HEPG2TOX_HILL_SLOPE 3.79, HEPG2TOX_R_SQUARED 0.83, read-out: LUCIFERASE INFECTION ASSAY - IC50): > 11.4 µM |
| Cc1nc(SCC(=O)Nc2nc(Br)sc2Cc2ccc([N+](=O)[O-])cc2)sc1Cc1ccccc1 | > 10 | – | IC50 (FFLUC_HILL_SLOPE 16.2, FFLUC_R_SQUARED 0.412, read-out: LUCIFERASE INFECTION ASSAY - IC50): > 10 µM |
| N#Cc1ccccc1OC(=O)Nc1ccc(OC(F)(F)F)cc1 | 3.62 | 3.31 | – |
| CN1N=C2c3ccccc3CCC2C1c1ccc(F)cc1 (stereo not drawn) | 5.64 | – | IC50 (PBLUC_HILL_SLOPE 1.42, PBLUC_R_SQUARED 0.884, read-out: LUCIFERASE INFECTION ASSAY - IC50): 1.2 µM |
| Cc1cc(SC(C)C(=O)N(Cc2ccccc2)Cc2ccccc2)nc2ccccc12 (stereo not drawn) | > 10 | – | IC50 (HEPG2TOX_HILL_SLOPE 0.863, HEPG2TOX_R_SQUARED 0.817, read-out: LUCIFERASE INFECTION ASSAY - IC50): > 10 µM |
| CCOC(=O)c1sc(NC(=O)Nc2ccc(Cl)c(Cl)c2)cc1C | 2.36 | – | IC50 (HEPG2TOX_HILL_SLOPE 22.1, HEPG2TOX_R_SQUARED 0.877, PBLUC_HILL_SLOPE 3.44, PBLUC_R_SQUARED 0.676, read-out: LUCIFERASE INFECTION ASSAY - IC50): 1.25 µM |
| C/C(c1cccs1)=[N+](/[O-])C(C)/C(=N/O)c1ccco1 (stereo not drawn) | > 10 | > 10 | – |
| CC(c1nc(=O)c2c(-c3ccccc3)csc2[nH]1)N(C)Cc1ccccc1N1CCCC1 (stereo not drawn) | > 10 | > 10 | – |
| Cc1cc(-c2ccccc2)[s+]c(-c2ccccc2)c1 | > 10 | – | IC50 (FFLUC_HILL_SLOPE 1.28, FFLUC_R_SQUARED 0.852, PBLUC_HILL_SLOPE 0.191, PBLUC_R_SQUARED 0.106, read-out: LUCIFERASE INFECTION ASSAY - IC50): > 10 µM |
| Cc1cc(CN(Cc2ccc(C(=O)NC3CC3)cc2)Cc2ccco2)no1 | > 10 | – | IC50 (PBLUC_HILL_SLOPE 2.47, PBLUC_R_SQUARED 0.284, read-out: LUCIFERASE INFECTION ASSAY - IC50): 5.89 µM |
| N#Cc1ccc(OC(=O)c2c(Cl)cccc2Cl)cc1 | > 11.3 | – | IC50 (HEPG2TOX_HILL_SLOPE 15.2, HEPG2TOX_R_SQUARED 0.237, read-out: LUCIFERASE INFECTION ASSAY - IC50): > 11.3 µM |
| O=C(Nc1cccc(F)c1)C1(c2ccnc(Nc3ccc(C(F)(F)F)cc3)c2)CC1 | > 10 | > 10 | – |
| CCOCCCn1c(SCC(=O)Nc2scc(C3CC3)c2C(=O)OCC)nnc1-c1ccc(Cl)cc1 | > 10 | > 10 | – |
| COc1ccc(-c2nn(-c3ccccc3)cc2/C=C/C(=O)NCCc2cn3ccccc3n2)cc1OC | > 10 | – | IC50 (PBLUC_HILL_SLOPE 1.11, PBLUC_R_SQUARED 0.206, read-out: LUCIFERASE INFECTION ASSAY - IC50): > 10 µM |
| Nc1ccc(C(OC(=O)c2ccc(Cl)cc2Cl)(C(F)(F)F)C(F)(F)F)cc1 | > 10 | – | IC50 (PBLUC_HILL_SLOPE 1.55, PBLUC_R_SQUARED 0.496, read-out: LUCIFERASE INFECTION ASSAY - IC50): 8.08 µM |
| O=[N+]([O-])c1cc2c(c(Cn3c(COc4ccc(Cl)cc4Cl)nc4ccccc43)c1)OCOC2 | 7.34 | – | IC50 (FFLUC_HILL_SLOPE 4.75, FFLUC_R_SQUARED 0.0792, PBLUC_HILL_SLOPE 3.98, PBLUC_R_SQUARED 0.767, read-out: LUCIFERASE INFECTION ASSAY - IC50): 4.23 µM |
| Cc1nn(C(C)(C)C)c(C)c1/C=N/OC(=O)Nc1ccc(Cl)cc1 | 0.27 | 0.0825 | – |
